Test results: the supplement of paper PMC11208160

Assay: recombinant barcode read abundance after kanamycin selection (control-corrected) (log10(CPM+1)); higher = more efficient recombination; sequences stand for … in AGTGCAGAGAAAATCGGCCAGTTTTCTCTGCCTGCAGTCCGCATGCCGT…AGATTTATGCAGCGGACTGCCTTTCTCCCAAAGTGATAAACCGGACAGTATCATGGACCGGTTTTCCCGGTAATCCGTATTTGCAAGGTTGGTTTCACT; site = the 11-nt target
How it was run: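 A vector carrying a T7-inducible recombinase and the last 73 bp of the bridge RNA received, by Gibson cloning, oligos encoding a promoter, target, barcode and the first 104 bridge RNA bases under J23119. The pooled constructs entered E. coli together with a donor plasmid by electroporation. Selection used chloramphenicol/ampicillin/kanamycin with 0.1 mM IPTG, with chloramphenicol/ampicillin LB agar as the control, each in two replicates. Recombination efficiency is the averaged, control-corrected counts-per-million of barcodes at recombinant junctions, reported as log10(CPM+1).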
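Note: IS621 recombinase and bridge RNA in Escherichia coli cells.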

Sequence	recombinant barcode read abundance (log10)
TCGCTAACTTGGGTTCTAACCTGTTGCCT (site GCGCTAACTAG)	0.145
TCGCTAACTTGGGTTCTAACCTGTTGCCT (site TCGCTAACTAG)	0.322
TCGGACCCTTGGGTTCTAACCTGTTGCGA (site TCGAACCCTTC)	1
TCGGACCCTTGGGTTCTAACCTGTTGCGA (site TCGCACCCTTC)	0.12
TCGGACCCTTGGGTTCTAACCTGTTGCGA (site TCGGACCCTTC)	2.73
TCGGACCCTTGGGTTCTAACCTGTTGCGA (site TCGTACCCTTC)	0.23
TCGGAGTCTTGGGTTCTAACCTGTTGCCG (site TCGGAGTCTCA)	0.0935
TCGGAGTCTTGGGTTCTAACCTGTTGCCG (site TCGGAGTCTCG)	1.17
TCGGAGTCTTGGGTTCTAACCTGTTGCGT (site TCGGAGTCTAA)	0.499
TCGGAGTCTTGGGTTCTAACCTGTTGCGT (site TCGGAGTCTAC)	2.55
TCGGAGTCTTGGGTTCTAACCTGTTGCGT (site TCGGAGTCTAG)	0.969
TCGGAGTCTTGGGTTCTAACCTGTTGCGT (site TCGGAGTCTAT)	2.39
TCGGATACTTGGGTTCTAACCTGTTGCAT (site TCGGATACTAA)	0.31
TCGGATACTTGGGTTCTAACCTGTTGCAT (site TCGGATACTAC)	0.0629
TCGGATACTTGGGTTCTAACCTGTTGCAT (site TCGGATACTAG)	0.173
TCGGATACTTGGGTTCTAACCTGTTGCAT (site TCGGATACTAT)	1.57
TCGGATACTTGGGTTCTAACCTGTTGCCT (site TCGGATACTAA)	0.119
TCGGATACTTGGGTTCTAACCTGTTGCCT (site TCGGATACTAC)	0.0175
TCGGATACTTGGGTTCTAACCTGTTGCCT (site TCGGATACTAG)	1.54
TCGGATACTTGGGTTCTAACCTGTTGCCT (site TCGGATACTAT)	0.0399
TCGGATACTTGGGTTCTAACCTGTTGCGT (site TCGGATACTAA)	0.0447
TCGGATACTTGGGTTCTAACCTGTTGCGT (site TCGGATACTAC)	2.05

Sequence	recombinant barcode read abundance (log10)
TCGGATACTTGGGTTCTAACCTGTTGCGT (site TCGGATACTAG)	0.265
TCGGATACTTGGGTTCTAACCTGTTGCGT (site TCGGATACTAT)	1.41
TCGGATGCTTGGGTTCTAACCTGTTGCTT (site TCGAATGCTAG)	0.349
TCGGATGCTTGGGTTCTAACCTGTTGCTT (site TCGGATGCTAA)	0.901
TCGGGGACTTGGGTTCTAACCTGTTGCCG (site TCAGGGACTCT)	0.183
TCGGGGACTTGGGTTCTAACCTGTTGCCG (site TCGGGGACTCG)	0.601
TCGTACCCTTGGGTTCTAACCTGTTGCAA (site AAAATATCTAG)	0.083
TCGTACCCTTGGGTTCTAACCTGTTGCAA (site TCGTACCCTTT)	0.143
TCGTCTACTTGGGTTCTAACCTGTTGCTC (site ATCAACCCTTG)	0.117
TCGTCTACTTGGGTTCTAACCTGTTGCTC (site TCGTCTACTGA)	0.26
TCGTGCCCTTGGGTTCTAACCTGTTGCGT (site CCGTGCCCTAC)	0.0929
TCGTGCCCTTGGGTTCTAACCTGTTGCGT (site TCGTGCCCTAC)	0.14
TCGTTTCCTTGGGTTCTAACCTGTTGCAT (site AGCCAGGCTCC)	0.0113
TCGTTTCCTTGGGTTCTAACCTGTTGCAT (site TCGTTTCCTAT)	0.0275
TCTAAACCTTGGGTTCTAACCTGTTGCCT (site TCTAAACCTAG)	0.205
TCTAAACCTTGGGTTCTAACCTGTTGCCT (site TCTCAACCTAG)	0.0726
TCTAACACTTGGGTTCTAACCTGTTGCCT (site ACTAACACTAG)	0.0882
TCTAACACTTGGGTTCTAACCTGTTGCCT (site CCTAACACTAG)	0.0793
TCTAACACTTGGGTTCTAACCTGTTGCCT (site GCTAACACTAG)	0.0247
TCTAACACTTGGGTTCTAACCTGTTGCCT (site TCTAACACTAG)	0.206
TCTAAGGCTTGGGTTCTAACCTGTTGCCT (site TCAAAGGCTAG)	0.36
TCTAAGGCTTGGGTTCTAACCTGTTGCCT (site TCCAAGGCTAG)	0.108

Sequence	recombinant barcode read abundance (log10)
TCTAAGGCTTGGGTTCTAACCTGTTGCCT (site TCGAAGGCTAG)	0.048
TCTAAGGCTTGGGTTCTAACCTGTTGCCT (site TCTAAGGCTAG)	0.043
TCTAAGTCTTGGGTTCTAACCTGTTGCCA (site TCTAAGTCTAG)	0.045
TCTAAGTCTTGGGTTCTAACCTGTTGCCA (site TCTAAGTCTCG)	0.144
TCTAAGTCTTGGGTTCTAACCTGTTGCCA (site TCTAAGTCTGG)	0.695
TCTAAGTCTTGGGTTCTAACCTGTTGCCA (site TCTAAGTCTTG)	0.0536
TCTACATCTTGGGTTCTAACCTGTTGCCT (site TCTACATCTAG)	0.0728
TCTACATCTTGGGTTCTAACCTGTTGCCT (site TCTACCTCTAG)	0.0374
TCTACATCTTGGGTTCTAACCTGTTGCCT (site TCTACGTCTAG)	0.0302
TCTACATCTTGGGTTCTAACCTGTTGCCT (site TCTACTTCTAG)	0.0355
TCTAGAACTTGGGTTCTAACCTGTTGCCT (site TCTAGAACTAG)	0.0829
TCTAGAACTTGGGTTCTAACCTGTTGCCT (site TCTAGACCTAG)	0.0178
TCTAGAACTTGGGTTCTAACCTGTTGCCT (site TCTAGAGCTAG)	0.0689
TCTAGAACTTGGGTTCTAACCTGTTGCCT (site TCTAGATCTAG)	0.0276
TCTAGACCTTGGGTTCTAACCTGTTGCCA (site TCTAGACCTTG)	0.0618
TCTAGACCTTGGGTTCTAACCTGTTGCCA (site TCTAGTCCTAG)	0.564
TCTATGTCTTGGGTTCTAACCTGTTGCCT (site TCTATGACTAG)	0.182
TCTATGTCTTGGGTTCTAACCTGTTGCCT (site TCTATGTCTAG)	0.107
TCTCAGGCTTGGGTTCTAACCTGTTGCAG (site TATCAGACTCT)	0.0549
TCTCAGGCTTGGGTTCTAACCTGTTGCAG (site TCTCAGGCTCT)	0.445
TCTCCTCCTTGGGTTCTAACCTGTTGCAT (site GAGGTCACTTA)	0.115
TCTCCTCCTTGGGTTCTAACCTGTTGCAT (site TCTCCTCCTAT)	0.679
